Reference: patent publication US12329158B2, “Large-scale methods of uniformly coating packaging surfaces with a volatile antimicrobial to preserve food freshness” (AGROFRESH INC., priority 2013, dated 2025)
Converted amounts (≈) assume the structure as drawn. Read-outs that look alike come from different tables or passages of the source.

Assays:
[1] = system: C. krusei (or I. orientalis); test: In vitro volatile assay, yeast infection species (Example 27); format: cell-based, Issatchenkia orientalis; settings: Pichia kudriavzevii
Procedure: More specifically, growth inhibition of yeast infection fungal species C. albicans and C. krusei (or I. orientalis) by volatile treatment of Compound 10 was assessed via a volatile assay.
Volatile assay: 6-well (16.5 mL volume per well) microtiter plates are used in an in vitro inhibition assay for Compound 10 (i.e., Compound A). A 7.5-mL volume of half strength PDA is added to each well. After drying, a mycelial plug (5 mm diameter) is aseptically obtained from actively growing cultures of C. albicans and C. krusei (or I. orientalis) and placed at the center of the plate with the mycelial side in contact with the agar. A Whatman #1 filter disk (Cat. No. 1001-325) is placed, in duplicate, on the underside of a polyethylene PCR plate sealing film. […] The acetone/methanol is permitted to evaporate for 5 minutes. The headspace around the inoculum is then sealed inside the well by the film with the adhering disk containing the fungicide and incubated inverted for 5 days at 28° C.

Botrytis cinerea [2] = test: Dose response, sprayed clamshells; strawberries (Example 4); format: in vivo; settings: spraying
Procedure: (§1) Five milligrams of Compound A was dissolved in 1 ml of ethanol prior to being uniformly administered to the interior of the clamshell by painting or spraying, and then dried for 5 minutes. After coating the clamshells with Compound A using various application techniques (i.e., sublimation, spraying, or painting), eight ethanol-washed strawberries were placed in the clamshell with stem end facing downwards. Each strawberry fruit was wounded using a T15 screwdriver tip to a uniform depth of eight mm (8 mm). […] Uninoculated strawberries were removed from their commercial package, and directly transferred into treated clamshells without any washing or inoculation steps.
(§2) Treated clamshells lids were closed, and then placed at 1° C. for an initial time period of 5 days. Clamshells were then removed from low temperature, and held for a second time period of 6 days at room temperature where the point of inoculation on the strawberry fruits was assessed for indication of disease incidence reported as a percentage (%). Severity of disease incidence was also reported.
This in vivo assay was used to evaluate the ability of different concentrations of Compound A to volatilize from clamshell in order to control or inhibit fruit infection by pathogenic microorganism, Botrytis cinerea. This experiment was conducted exactly as described in Example 1, with a few exceptions. After equilibrating the clamshell overnight at 21° C., Compound A was administered to the clamshells by spraying only. Compound A was sprayed onto the surface of the clamshells at a final treatment rate of 5 mg/clamshell or 1 mg/clamshell. The clamshells were then permitted to dry for 5 minutes. Strawberries were inoculated with Botrytis cinerea, placed within the clamshells for the initial time period (i.e., 5 days), and assessed for disease incidence and severity over the second time period (i.e., 6 days) as described in Example 1.

Botrytis cinerea [3] = test: In-clamshell Compound A applied by painting, spraying or sublimation; strawberries (Example 1); format: in vivo; settings: 5 mg/clamshell
Procedure: An in vivo assay was used to evaluate the ability of Compound A to volatilize from a clamshell chamber and control pathogenic infection when applied by various techniques. Multiple empty 1-lb PET clamshells (ProducePackaging.com, #036QT) were placed inside triplicate air-tight 36 L chamber (Fisher Scientific, Catalogue #08-642-23C) fitted with a bulkhead septum port (Swagelok, SS-401-61, Solon, OH).
Compound A headspace was permitted to equilibrate overnight at 21° C.
as §1, §2

[4] = Inoculated Fruit, 1 mg/clamshell, Day 0
[5] = Inoculated Fruit, 1 mg/clamshell, Day 1
[6] = Inoculated Fruit, 1 mg/clamshell, Day 2
[7] = Inoculated Fruit, 1 mg/clamshell, Day 3
[8] = Inoculated Fruit, 1 mg/clamshell, Day 4
[9] = Inoculated Fruit, 1 mg/clamshell, Day 5
[10] = Inoculated Fruit, 1 mg/clamshell, Day 6
[11] = Inoculated Fruit, 5 mg/clamshell, Day 0
[12] = Inoculated Fruit, 5 mg/clamshell, Day 1
[13] = Inoculated Fruit, 5 mg/clamshell, Day 2
[14] = Inoculated Fruit, 5 mg/clamshell, Day 3
[15] = Inoculated Fruit, 5 mg/clamshell, Day 4
[16] = Inoculated Fruit, 5 mg/clamshell, Day 5
[17] = Inoculated Fruit, 5 mg/clamshell, Day 6
[18] = Uninoculated Fruit, 5 mg/clamshell, Day 0
[19] = Uninoculated Fruit, 5 mg/clamshell, Day 1
[20] = Uninoculated Fruit, 5 mg/clamshell, Day 2
[21] = Uninoculated Fruit, 5 mg/clamshell, Day 6

OB1OCc2cc(F)ccc21 [Compound A, 5-fluoro-1,3-dihydro-1-hydroxy-2,1-benzoxaborole]
MIC ([1]; 120 h, read-out: minimum inhibitory concentration (MIC) for C. krusei): 35.7 mg/L (≈ 235 µM)
inhibition at 0.017 µg/mL ([1]; volatile, 0.017 mg/L, read-out: Growth Inhibition (%) C. krusei/I. orientalis): -1.3%
inhibition at 0.035 µg/mL ([1]; volatile, 0.035 mg/L, read-out: Growth Inhibition (%) C. krusei/I. orientalis): -1.4%
inhibition at 0.07 µg/mL ([1]; volatile, 0.07 mg/L, read-out: Growth Inhibition (%) C. krusei/I. orientalis): 0.5%
inhibition at 0.1 µg/mL ([1]; volatile, 0.1 mg/L, read-out: Growth Inhibition (%) C. krusei/I. orientalis): 0.4%
inhibition at 0.3 µg/mL ([1]; volatile, 0.3 mg/L, read-out: Growth Inhibition (%) C. krusei/I. orientalis): 1.2%
inhibition at 0.6 µg/mL ([1]; volatile, 0.6 mg/L, read-out: Growth Inhibition (%) C. krusei/I. orientalis): -5.2%
inhibition at […] ([1]; volatile, 1.1 mg/L, read-out: Growth Inhibition (%) C. krusei/I. orientalis): -0.2%
inhibition at […] ([1]; volatile, 2.2 mg/L, read-out: Growth Inhibition (%) C. krusei/I. orientalis): 18.2%
inhibition at […] ([1]; volatile, 4.5 mg/L, read-out: Growth Inhibition (%) C. krusei/I. orientalis): 22%
inhibition at […] ([1]; volatile, 8.9 mg/L, read-out: Growth Inhibition (%) C. krusei/I. orientalis): 30.5%
Gray Mold Incidence (%) (Botrytis cinerea [2]; [4]): 0.0%
Gray Mold Severity (0-4) (Botrytis cinerea [2]; [4]): 0.0
Gray Mold Incidence (%) (Botrytis cinerea [2]; [5]): 0.0%
Gray Mold Severity (0-4) (Botrytis cinerea [2]; [5]): 0.0
Gray Mold Incidence (%) (Botrytis cinerea [2]; [6]): 1.3%
Gray Mold Severity (0-4) (Botrytis cinerea [2]; [6]): 0.0
Gray Mold Incidence (%) (Botrytis cinerea [2]; [7]): 3.8%
Gray Mold Severity (0-4) (Botrytis cinerea [2]; [7]): 0.1
Gray Mold Incidence (%) (Botrytis cinerea [2]; [8]): 11.3%
Gray Mold Severity (0-4) (Botrytis cinerea [2]; [8]): 0.2
Gray Mold Incidence (%) (Botrytis cinerea [2]; [9]): 36.3%
Gray Mold Severity (0-4) (Botrytis cinerea [2]; [9]): 0.6
Gray Mold Incidence (%) (Botrytis cinerea [2]; [10]): 52.5%
Gray Mold Severity (0-4) (Botrytis cinerea [2]; [10]): 1.5
Gray Mold Incidence (%) (Botrytis cinerea [2]; [11]): 0.0%
Gray Mold Severity (0-4) (Botrytis cinerea [2]; [11]): 0.0
Gray Mold Incidence (%) (Botrytis cinerea [2]; [12]): 0.0%
Gray Mold Severity (0-4) (Botrytis cinerea [2]; [12]): 0.0
Gray Mold Incidence (%) (Botrytis cinerea [2]; [13]): 0.0%
Gray Mold Severity (0-4) (Botrytis cinerea [2]; [13]): 0.0
Gray Mold Incidence (%) (Botrytis cinerea [2]; [14]): 0.0%
Gray Mold Severity (0-4) (Botrytis cinerea [2]; [14]): 0.0
Gray Mold Incidence (%) (Botrytis cinerea [2]; [15]): 0.0%
Gray Mold Severity (0-4) (Botrytis cinerea [2]; [15]): 0.0
Gray Mold Incidence (%) (Botrytis cinerea [2]; [16]): 0.0%
Gray Mold Severity (0-4) (Botrytis cinerea [2]; [16]): 0.0
Gray Mold Incidence (%) (Botrytis cinerea [2]; [17]): 0.0%
Gray Mold Severity (0-4) (Botrytis cinerea [2]; [17]): 0.0
Gray Mold Incidence (%) (Botrytis cinerea [2]; Uninoculated Fruit, 1 mg/clamshell, Day 0): 0.0%
Gray Mold Incidence (%) (Botrytis cinerea [2]; Uninoculated Fruit, 1 mg/clamshell, Day 1): 1.9%
Gray Mold Incidence (%) (Botrytis cinerea [2]; Uninoculated Fruit, 1 mg/clamshell, Day 2): 21.6%
Gray Mold Incidence (%) (Botrytis cinerea [2]; Uninoculated Fruit, 1 mg/clamshell, Day 3): 89.5%
Gray Mold Incidence (%) (Botrytis cinerea [2]; Uninoculated Fruit, 1 mg/clamshell, Day 4): 100.0%
Gray Mold Incidence (%) (Botrytis cinerea [2]; Uninoculated Fruit, 1 mg/clamshell, Day 5): 100.0%
Gray Mold Incidence (%) (Botrytis cinerea [2]; Uninoculated Fruit, 1 mg/clamshell, Day 6): 100.0%
Gray Mold Incidence (%) (Botrytis cinerea [2]; [18]): 0.5%
Gray Mold Severity (0-4) (Botrytis cinerea [2]; [18]): 0.1
Gray Mold Incidence (%) (Botrytis cinerea [2]; [19]): 0.5%
Gray Mold Severity (0-4) (Botrytis cinerea [2]; [19]): 0.1
Gray Mold Incidence (%) (Botrytis cinerea [2]; [20]): 0.9%
Gray Mold Severity (0-4) (Botrytis cinerea [2]; [20]): 0.3
Gray Mold Incidence (%) (Botrytis cinerea [2]; Uninoculated Fruit, 5 mg/clamshell, Day 3): 3.3%
Gray Mold Incidence (%) (Botrytis cinerea [2]; Uninoculated Fruit, 5 mg/clamshell, Day 4): 16.2%
Gray Mold Incidence (%) (Botrytis cinerea [2]; Uninoculated Fruit, 5 mg/clamshell, Day 5): 31.9%
Gray Mold Incidence (%) (Botrytis cinerea [2]; [21]): 78.5%
Gray Mold Severity (0-4) (Botrytis cinerea [2]; [21]): 3.5
Gray Mold Incidence (%) (Botrytis cinerea [3]; Inoculated Fruit, Paint, Day 0): 0.0%
Gray Mold Incidence (%) (Botrytis cinerea [3]; Inoculated Fruit, Paint, Day 1): 0.0%
Gray Mold Incidence (%) (Botrytis cinerea [3]; Inoculated Fruit, Paint, Day 2): 0.0%
Gray Mold Incidence (%) (Botrytis cinerea [3]; Inoculated Fruit, Paint, Day 3): 0.0%
Gray Mold Incidence (%) (Botrytis cinerea [3]; Inoculated Fruit, Paint, Day 4): 0.0%
Gray Mold Incidence (%) (Botrytis cinerea [3]; Inoculated Fruit, Paint, Day 5): 0.0%
Gray Mold Incidence (%) (Botrytis cinerea [3]; Inoculated Fruit, Paint, Day 6): 0.0%
Gray Mold Incidence (%) (Botrytis cinerea [3]; Inoculated Fruit, Spray, Day 0): 0.0%
Gray Mold Incidence (%) (Botrytis cinerea [3]; Inoculated Fruit, Spray, Day 1): 0.0%
Gray Mold Incidence (%) (Botrytis cinerea [3]; Inoculated Fruit, Spray, Day 2): 0.0%
Gray Mold Incidence (%) (Botrytis cinerea [3]; Inoculated Fruit, Spray, Day 3): 0.0%
Gray Mold Incidence (%) (Botrytis cinerea [3]; Inoculated Fruit, Spray, Day 4): 0.0%
Gray Mold Incidence (%) (Botrytis cinerea [3]; Inoculated Fruit, Spray, Day 5): 0.0%
Gray Mold Incidence (%) (Botrytis cinerea [3]; Inoculated Fruit, Spray, Day 6): 0.0%
Gray Mold Incidence (%) (Botrytis cinerea [3]; Inoculated Fruit, Sublimation, Day 0): 0.0%
Gray Mold Incidence (%) (Botrytis cinerea [3]; Inoculated Fruit, Sublimation, Day 1): 0.0%
Gray Mold Incidence (%) (Botrytis cinerea [3]; Inoculated Fruit, Sublimation, Day 2): 0.0%
Gray Mold Incidence (%) (Botrytis cinerea [3]; Inoculated Fruit, Sublimation, Day 3): 0.0%
Gray Mold Incidence (%) (Botrytis cinerea [3]; Inoculated Fruit, Sublimation, Day 4): 0.0%
Gray Mold Incidence (%) (Botrytis cinerea [3]; Inoculated Fruit, Sublimation, Day 5): 0.9%
Gray Mold Incidence (%) (Botrytis cinerea [3]; Inoculated Fruit, Sublimation, Day 6): 0.9%
Gray Mold Incidence (%) (Botrytis cinerea [3]; Uninoculated Fruit, Paint, Day 0): 0.0%
Gray Mold Incidence (%) (Botrytis cinerea [3]; Uninoculated Fruit, Paint, Day 1): 0.3%
Gray Mold Incidence (%) (Botrytis cinerea [3]; Uninoculated Fruit, Paint, Day 2): 3.9%
Gray Mold Incidence (%) (Botrytis cinerea [3]; Uninoculated Fruit, Paint, Day 3): 5.1%
Gray Mold Incidence (%) (Botrytis cinerea [3]; Uninoculated Fruit, Paint, Day 4): 7.4%
Gray Mold Incidence (%) (Botrytis cinerea [3]; Uninoculated Fruit, Paint, Day 5): 17.0%
Gray Mold Incidence (%) (Botrytis cinerea [3]; Uninoculated Fruit, Paint, Day 6): 21.7%
Gray Mold Incidence (%) (Botrytis cinerea [3]; Uninoculated Fruit, Spray, Day 0): 0.0%
Gray Mold Incidence (%) (Botrytis cinerea [3]; Uninoculated Fruit, Spray, Day 1): 0.6%
Gray Mold Incidence (%) (Botrytis cinerea [3]; Uninoculated Fruit, Spray, Day 2): 2.1%
Gray Mold Incidence (%) (Botrytis cinerea [3]; Uninoculated Fruit, Spray, Day 3): 4.8%
Gray Mold Incidence (%) (Botrytis cinerea [3]; Uninoculated Fruit, Spray, Day 4): 6.0%
Gray Mold Incidence (%) (Botrytis cinerea [3]; Uninoculated Fruit, Spray, Day 5): 17.9%
Gray Mold Incidence (%) (Botrytis cinerea [3]; Uninoculated Fruit, Spray, Day 6): 19.9%
Gray Mold Incidence (%) (Botrytis cinerea [3]; Uninoculated Fruit, Sublimation, Day 0): 0.0%
Gray Mold Incidence (%) (Botrytis cinerea [3]; Uninoculated Fruit, Sublimation, Day 1): 0.3%
Gray Mold Incidence (%) (Botrytis cinerea [3]; Uninoculated Fruit, Sublimation, Day 2): 1.5%
Gray Mold Incidence (%) (Botrytis cinerea [3]; Uninoculated Fruit, Sublimation, Day 3): 3.3%
Gray Mold Incidence (%) (Botrytis cinerea [3]; Uninoculated Fruit, Sublimation, Day 4): 5.7%
Gray Mold Incidence (%) (Botrytis cinerea [3]; Uninoculated Fruit, Sublimation, Day 5): 16.7%
Gray Mold Incidence (%) (Botrytis cinerea [3]; Uninoculated Fruit, Sublimation, Day 6): 20.2%
